What was measured:
Estrogen receptor [1] = target: T1, Estrogen receptor (Homo sapiens, UniProt P03372)
T1 sequence (P03372 whole entry): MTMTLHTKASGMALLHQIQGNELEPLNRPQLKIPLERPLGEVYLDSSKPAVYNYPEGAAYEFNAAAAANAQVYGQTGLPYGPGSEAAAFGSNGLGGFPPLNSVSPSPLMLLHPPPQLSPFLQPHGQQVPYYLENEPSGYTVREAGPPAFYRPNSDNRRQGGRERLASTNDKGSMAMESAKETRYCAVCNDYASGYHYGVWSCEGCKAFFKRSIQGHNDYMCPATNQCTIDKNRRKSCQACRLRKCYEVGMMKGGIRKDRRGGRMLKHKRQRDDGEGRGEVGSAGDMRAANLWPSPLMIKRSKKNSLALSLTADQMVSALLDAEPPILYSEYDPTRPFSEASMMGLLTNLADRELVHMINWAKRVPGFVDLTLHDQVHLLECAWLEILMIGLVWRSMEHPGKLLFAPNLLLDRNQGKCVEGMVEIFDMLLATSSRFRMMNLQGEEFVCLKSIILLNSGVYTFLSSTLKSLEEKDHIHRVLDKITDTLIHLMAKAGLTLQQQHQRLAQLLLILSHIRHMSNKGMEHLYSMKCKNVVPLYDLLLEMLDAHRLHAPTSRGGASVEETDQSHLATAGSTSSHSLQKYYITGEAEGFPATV
Description: Agonist activity at human recombinant ERalpha expressed in HEK293 cells by transactivation assay

Estrogen receptor [2] = target: T1, Estrogen receptor; remark: listed apart in the source
Description: Binding affinity to human recombinant ERalpha by scintillation proximity assay

Androgen receptor = target: T2, Androgen receptor (Homo sapiens, UniProt P10275)
T2 sequence (P10275 whole entry): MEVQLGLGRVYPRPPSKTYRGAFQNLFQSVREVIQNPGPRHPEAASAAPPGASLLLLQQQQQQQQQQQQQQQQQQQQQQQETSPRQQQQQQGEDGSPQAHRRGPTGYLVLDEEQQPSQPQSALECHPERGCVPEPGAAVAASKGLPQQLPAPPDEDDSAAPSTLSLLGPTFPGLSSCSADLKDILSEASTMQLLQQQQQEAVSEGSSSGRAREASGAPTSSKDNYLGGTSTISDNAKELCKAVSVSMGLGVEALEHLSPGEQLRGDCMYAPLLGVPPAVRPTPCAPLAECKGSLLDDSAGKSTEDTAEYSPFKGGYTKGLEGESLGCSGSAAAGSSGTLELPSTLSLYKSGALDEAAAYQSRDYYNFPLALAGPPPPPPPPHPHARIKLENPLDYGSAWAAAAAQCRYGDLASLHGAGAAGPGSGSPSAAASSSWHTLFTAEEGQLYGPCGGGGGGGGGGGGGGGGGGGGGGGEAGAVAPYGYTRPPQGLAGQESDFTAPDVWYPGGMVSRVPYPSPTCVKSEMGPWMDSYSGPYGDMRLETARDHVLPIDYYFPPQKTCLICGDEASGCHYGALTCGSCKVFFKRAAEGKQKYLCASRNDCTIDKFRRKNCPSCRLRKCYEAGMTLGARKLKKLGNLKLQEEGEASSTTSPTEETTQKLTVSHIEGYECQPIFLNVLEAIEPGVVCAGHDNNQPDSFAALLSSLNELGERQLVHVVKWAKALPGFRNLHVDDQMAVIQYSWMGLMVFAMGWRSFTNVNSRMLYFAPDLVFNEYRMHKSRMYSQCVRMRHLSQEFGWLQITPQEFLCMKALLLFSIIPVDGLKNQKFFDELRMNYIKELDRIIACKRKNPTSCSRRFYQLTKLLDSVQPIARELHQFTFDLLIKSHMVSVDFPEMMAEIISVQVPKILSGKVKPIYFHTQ
Description: Binding affinity to androgen receptor

Estrogen receptor beta [3] = target: T3, Estrogen receptor beta (Homo sapiens, UniProt Q92731)
Description: Agonist activity at human recombinant ERbeta expressed in HEK293 cells by transactivation assay

Estrogen receptor beta [4] = target: T3, Estrogen receptor beta; remark: listed apart in the source
Description: Binding affinity to human recombinant ERbeta by scintillation proximity assay

T3 sequence (Q92731 whole entry): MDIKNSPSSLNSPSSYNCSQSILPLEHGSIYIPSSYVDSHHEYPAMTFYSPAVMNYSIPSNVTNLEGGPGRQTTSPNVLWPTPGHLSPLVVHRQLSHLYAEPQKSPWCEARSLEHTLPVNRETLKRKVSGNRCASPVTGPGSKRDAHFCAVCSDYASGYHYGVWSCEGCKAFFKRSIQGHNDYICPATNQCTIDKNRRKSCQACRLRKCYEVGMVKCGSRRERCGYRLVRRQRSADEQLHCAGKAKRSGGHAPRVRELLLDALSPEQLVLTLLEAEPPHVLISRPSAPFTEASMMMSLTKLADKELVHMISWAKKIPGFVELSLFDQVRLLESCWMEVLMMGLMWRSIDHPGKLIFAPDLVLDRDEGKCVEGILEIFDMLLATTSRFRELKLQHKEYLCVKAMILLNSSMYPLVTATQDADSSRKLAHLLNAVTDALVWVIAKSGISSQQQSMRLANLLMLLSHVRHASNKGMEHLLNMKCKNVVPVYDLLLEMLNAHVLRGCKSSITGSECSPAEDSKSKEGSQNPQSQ

SMILES | EC50 (Estrogen receptor [1]) [nM] | IC50 (Estrogen receptor [2]) [nM] | IC50 (Androgen receptor) [nM] | EC50 (Estrogen receptor beta [3]) [nM] | IC50 (Estrogen receptor beta [4]) [nM]
C[C@]12CC[C@H]3[C@@H](CC=C4[C@H]5CC[C@]43CC[C@@H]5O)[C@@H]1CC[C@@H]2O | 44 | 317 | 1380 | 28 | 50
C=C[C@]12CC[C@H](O)CC1=CC[C@H]1[C@@H]3CC[C@H](O)[C@@]3(C)CC[C@@H]12 | 980 | 2240 |  | 4 | 
C[C@]12CC[C@H]3[C@@H](CC=C4C[C@@H]5CC[C@@]43CCO5)[C@@H]1CC[C@@H]2O | > 1000 | > 10000 | 710 | 440 | > 10000
C[C@]12CC[C@H]3[C@@H](CC=C4[C@@H]5C(=O)CC[C@@]43C[C@H]5O)[C@@H]1CC[C@@H]2O | > 1000 | > 10000 | > 1000 | > 1000 | > 10000
CC[C@]12CC[C@H](O)CC1=CC[C@@H]1[C@@H]2CC[C@]2(C)[C@@H](O)CC[C@@H]12 |  | 2330 | 88 |  | 16
C[C@]12CC[C@H]3[C@@H](CC=C4[C@H]5CC=C[C@]43CC[C@@H]5O)[C@@H]1CC[C@@H]2O | 4890 | 2240 | 85 | 132 | 157
C[C@]12CC[C@H]3[C@@H](CC=C4C[C@@H]5CC[C@@]43CC(=O)O5)[C@@H]1CC[C@@H]2O | > 1000 | > 10000 | > 1000 | > 1000 | > 10000
C[C@]12CC[C@H]3[C@@H](CC[C@H]4[C@H]5CCC[C@]43CC[C@@H]5O)[C@@H]1CC[C@@H]2O | 1300 | 4990 | 68 | 219 | 322
C=C[C@]12CCC(=O)C=C1CC[C@H]1[C@@H]3CC[C@H](O)[C@@]3(C)CC[C@@H]12 | > 1000 | > 10000 |  |  | 
C=CC[C@@H]1C2=CC[C@H]3[C@@H]4CC[C@H](O)[C@@]4(C)CC[C@@H]3[C@@]2(C=C)CC[C@@H]1O | > 1000 | > 10000 | 15 | > 1000 | 3020
C[C@]12CC[C@H]3[C@@H](CC=C4[C@H]5CC[C@]43CC[C@H]5O)[C@@H]1CC[C@@H]2O | 435 | 8130 | 1120 | 198 | 854
C[C@]12CC[C@H]3[C@@H](CC=C4[C@H]5CC[C@]43CCC5=O)[C@@H]1CC[C@@H]2O | 407 | > 10000 |  | 86 | 1460
C/C=C\[C@]12CC[C@H](O)CC1=CC[C@H]1[C@@H]3CC[C@H](O)[C@@]3(C)CC[C@@H]12 | 344 | 1960 | 718 | 21 | 16
C[C@]12CC[C@H]3[C@@H](CC4C5=CC(=O)CC[C@@]53C[C@H]4O)[C@@H]1CC[C@@H]2O | > 1000 | > 10000 | > 1000 | > 1000 | > 10000
C[C@]12CC[C@H]3[C@@H](CC=C4[C@@H]5C(=O)CC[C@@]43C[C@@H]5O)[C@@H]1CC[C@@H]2O | > 1000 | > 10000 | > 1000 | > 1000 | > 10000

Source: ChEMBL document CHEMBL1139947, “Bridged androstenediol analogs as ER-beta selective SERMs” (Bioorg Med Chem Lett, 2007)
